# Source: article PMC9321722, “Tailored Pyridoxal Probes Unravel Novel Cofactor‐Dependent Targets and Antibiotic Hits in Critical Bacterial Pathogens” (Angewandte Chemie (International Ed. in English), 2022)
# Legend:
# PA2683 [1] = biological target: T1, PA2683 (Pseudomonas aeruginosa, UniProt Q9I0F5); assay: coupled NADH assay and LC-MS/MS of products; type: biochemical
# T1 sequence (Q9I0F5 1-320): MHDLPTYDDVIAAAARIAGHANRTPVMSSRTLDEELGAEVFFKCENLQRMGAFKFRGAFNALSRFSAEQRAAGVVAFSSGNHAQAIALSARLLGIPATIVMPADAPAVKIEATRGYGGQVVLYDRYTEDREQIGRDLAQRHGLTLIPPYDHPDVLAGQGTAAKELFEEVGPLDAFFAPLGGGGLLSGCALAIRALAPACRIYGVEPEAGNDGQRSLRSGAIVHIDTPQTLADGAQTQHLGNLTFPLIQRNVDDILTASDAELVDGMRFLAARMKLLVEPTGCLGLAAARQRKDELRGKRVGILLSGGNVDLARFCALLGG
# [2] = biological target: T2, A0A0H2XHJ5 (cysteine desulfurase, sufS) (Staphylococcus aureus, UniProt A0A0H2XHJ5); assay: LC-MS quantification of alanine formed from L-Cys by overexpressed enzyme; type: biochemical
# T2 construct: with sufU
# T2 sequence (A0A0H2XHJ5 entry or part of it): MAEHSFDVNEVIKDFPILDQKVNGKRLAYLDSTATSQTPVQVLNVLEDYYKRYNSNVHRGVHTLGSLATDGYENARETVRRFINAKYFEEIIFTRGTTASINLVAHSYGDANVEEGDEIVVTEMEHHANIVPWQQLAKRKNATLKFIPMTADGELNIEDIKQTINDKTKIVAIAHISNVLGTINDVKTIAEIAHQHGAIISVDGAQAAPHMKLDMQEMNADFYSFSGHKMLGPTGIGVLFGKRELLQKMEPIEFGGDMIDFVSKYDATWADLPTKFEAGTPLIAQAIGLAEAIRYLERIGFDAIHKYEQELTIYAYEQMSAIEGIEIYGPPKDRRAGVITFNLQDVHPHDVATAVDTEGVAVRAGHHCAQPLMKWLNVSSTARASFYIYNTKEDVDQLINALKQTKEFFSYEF
# T2 sequence (A0A0H2XJC0 entry or part of it, further chain): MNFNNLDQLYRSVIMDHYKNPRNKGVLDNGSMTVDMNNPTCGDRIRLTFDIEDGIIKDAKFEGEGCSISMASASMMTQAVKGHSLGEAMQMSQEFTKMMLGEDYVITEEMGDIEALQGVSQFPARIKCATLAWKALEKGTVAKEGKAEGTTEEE
# [3] = biological target: T3, Orn/Lys/Arg decarboxylase (A0A0H2XII6) (Staphylococcus aureus, UniProt A0A0H2XII6); assay: LC-MS/MS quantification of cadaverine formed by overexpressed enzyme; also competitive PL2 profiling in cells; type: biochemical
# T3 construct: gene SAUSA300_0458
# T3 sequence (A0A0H2XII6 entry or part of it): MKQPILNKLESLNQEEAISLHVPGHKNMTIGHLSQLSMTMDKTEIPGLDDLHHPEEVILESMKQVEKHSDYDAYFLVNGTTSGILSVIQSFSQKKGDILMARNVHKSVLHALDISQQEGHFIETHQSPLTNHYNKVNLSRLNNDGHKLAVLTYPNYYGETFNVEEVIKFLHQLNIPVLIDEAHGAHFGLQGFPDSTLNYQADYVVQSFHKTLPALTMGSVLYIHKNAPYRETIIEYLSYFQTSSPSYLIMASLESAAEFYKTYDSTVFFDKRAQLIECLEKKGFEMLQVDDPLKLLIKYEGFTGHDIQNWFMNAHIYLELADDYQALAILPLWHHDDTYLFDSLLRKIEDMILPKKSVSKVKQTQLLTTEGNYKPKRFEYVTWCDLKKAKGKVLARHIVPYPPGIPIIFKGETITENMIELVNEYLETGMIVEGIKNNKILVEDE
# PA2683 [4] = biological target: T1, PA2683; assay: intact protein MS of overexpressed protein; type: binding
# [5] = biological target: T4, PA3659 (aminotransferase) (Pseudomonas aeruginosa, UniProt Q9HXY0); assay: intact protein MS; UV/Vis of holo-enzyme; type: binding
# T4 sequence (Q9HXY0 1-402): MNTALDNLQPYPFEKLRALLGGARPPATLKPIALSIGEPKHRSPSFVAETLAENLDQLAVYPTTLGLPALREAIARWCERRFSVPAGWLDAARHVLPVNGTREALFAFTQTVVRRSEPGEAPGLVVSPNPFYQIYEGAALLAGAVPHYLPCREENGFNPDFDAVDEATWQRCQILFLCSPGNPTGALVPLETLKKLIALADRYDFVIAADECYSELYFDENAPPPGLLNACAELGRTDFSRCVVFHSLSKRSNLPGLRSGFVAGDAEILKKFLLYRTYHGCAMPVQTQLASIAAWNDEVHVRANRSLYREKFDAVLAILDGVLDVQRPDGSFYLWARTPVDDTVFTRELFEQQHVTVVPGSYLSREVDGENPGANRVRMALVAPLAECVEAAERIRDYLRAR
# ydcR = ydcR (Escherichia coli, UniProt P77730); assay: intact protein MS of overexpressed protein; type: binding
# Chain of ydcR (P77730 whole entry): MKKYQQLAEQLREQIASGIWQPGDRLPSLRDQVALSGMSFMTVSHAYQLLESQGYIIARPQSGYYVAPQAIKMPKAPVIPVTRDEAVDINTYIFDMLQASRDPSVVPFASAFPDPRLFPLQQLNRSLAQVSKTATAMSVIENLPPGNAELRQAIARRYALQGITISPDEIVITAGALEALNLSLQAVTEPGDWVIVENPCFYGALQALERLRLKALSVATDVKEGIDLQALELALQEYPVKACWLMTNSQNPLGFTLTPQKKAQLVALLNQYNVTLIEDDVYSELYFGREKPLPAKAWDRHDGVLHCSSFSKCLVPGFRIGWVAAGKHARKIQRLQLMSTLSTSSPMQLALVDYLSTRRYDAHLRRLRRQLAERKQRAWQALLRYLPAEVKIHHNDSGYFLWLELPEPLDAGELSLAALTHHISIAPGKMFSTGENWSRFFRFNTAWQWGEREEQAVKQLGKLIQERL
# [6] = biological target: T5, PA3798 (aminotransferase) (Pseudomonas aeruginosa, UniProt Q9HXJ9); assay: intact protein MS; UV/Vis of holo-enzyme; type: binding
# T5 sequence (Q9HXJ9 1-382): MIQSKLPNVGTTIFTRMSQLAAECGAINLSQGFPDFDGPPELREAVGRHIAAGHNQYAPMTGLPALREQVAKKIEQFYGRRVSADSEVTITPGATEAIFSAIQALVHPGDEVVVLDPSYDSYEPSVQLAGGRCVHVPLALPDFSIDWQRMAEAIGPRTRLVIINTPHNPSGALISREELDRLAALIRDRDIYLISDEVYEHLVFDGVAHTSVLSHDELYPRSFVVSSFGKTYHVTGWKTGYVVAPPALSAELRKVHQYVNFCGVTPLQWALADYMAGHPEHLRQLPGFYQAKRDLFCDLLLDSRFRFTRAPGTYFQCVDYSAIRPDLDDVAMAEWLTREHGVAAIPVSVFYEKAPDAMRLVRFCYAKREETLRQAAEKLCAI
# pdxK = biological target: T6, pdxK (Escherichia coli, UniProt P40191); assay: UV/Vis phosphorylation assay; type: biochemical
# T6 construct: pyridoxal kinase used in UV/Vis phosphorylation assay
# T6 sequence (P40191 whole entry): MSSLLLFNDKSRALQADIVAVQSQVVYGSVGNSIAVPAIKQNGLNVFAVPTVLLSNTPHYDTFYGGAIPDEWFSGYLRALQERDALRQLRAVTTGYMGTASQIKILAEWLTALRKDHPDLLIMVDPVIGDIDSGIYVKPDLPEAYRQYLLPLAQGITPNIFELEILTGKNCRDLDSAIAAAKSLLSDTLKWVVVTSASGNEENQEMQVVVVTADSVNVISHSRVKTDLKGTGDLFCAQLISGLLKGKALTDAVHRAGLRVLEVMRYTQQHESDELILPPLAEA
# PA2683 [7] = biological target: T1, PA2683; assay: acceleration of serine/threonine dehydratase activity of overexpressed enzyme; type: biochemical
# SaPLK = biological target: T7, SaPLK (Staphylococcus aureus, UniProt Q5HI96); assay: UV/Vis phosphorylation assay; type: biochemical
# T7 construct: gene pdxK; pyridoxal kinase used in UV/Vis phosphorylation assay
# T7 sequence (Q5HI96 1-276): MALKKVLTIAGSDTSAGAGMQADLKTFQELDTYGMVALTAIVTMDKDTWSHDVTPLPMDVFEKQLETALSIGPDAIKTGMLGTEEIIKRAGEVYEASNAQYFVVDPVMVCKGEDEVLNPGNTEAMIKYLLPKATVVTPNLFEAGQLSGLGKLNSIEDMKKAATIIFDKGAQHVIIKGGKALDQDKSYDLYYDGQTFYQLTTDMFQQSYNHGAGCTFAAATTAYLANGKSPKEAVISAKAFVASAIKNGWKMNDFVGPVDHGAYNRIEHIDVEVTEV
smiles,measurement,setting,value
N[C@@H](CO)C(=O)O [L-serine],coupled NADH assay and LC-MS/MS of products,PA2683 [1],The enzyme was overexpressed and indeed turnover of L‐serine was observed together with NADH consumption within a coupled assay
NNCCc1ccccc1 [phenelzine],IC50,[2],14.7 ± 1.22 µM
same,IC50,[3],53.1 ± 1.05 µM
Cc1ncc(COP(=O)(O)O)c(C=O)c1O [pyridoxal phosphate],intact protein MS of overexpressed protein,PA2683 [4],"PLP binding of all overexpressed enzymes was confirmed via intact protein MS (IP‐MS, Figure 4A)"
same,intact protein MS; UV/Vis of holo-enzyme,[5],"PLP binding of all overexpressed enzymes was confirmed via intact protein MS (IP‐MS, Figure 4A)"
same,intact protein MS of overexpressed protein,ydcR,"PLP binding of all overexpressed enzymes was confirmed via intact protein MS (IP‐MS, Figure 4A)"
same,intact protein MS; UV/Vis of holo-enzyme,[6],"PLP binding of all overexpressed enzymes was confirmed via intact protein MS (IP‐MS, Figure 4A)"
C#CCCc1ncc(CO)c(C=O)c1O [PL2],UV/Vis phosphorylation assay,pdxK,we observed phosphorylation of all probes except for PL11 and PL12
Nc1ncnc2c1ncn2[C@@H]1O[C@H](COP(=O)(O)O)[C@@H](O)[C@H]1O [adenosine monophosphate],acceleration of serine/threonine dehydratase activity of overexpressed enzyme,PA2683 [7],the catalysis was accelerated by adding adenosine monophosphate (AMP) and magnesium
C#Cc1nc(C)c(O)c(C=O)c1CO [PL10],UV/Vis phosphorylation assay,pdxK,we observed phosphorylation of all probes except for PL11 and PL12
same,UV/Vis phosphorylation assay,SaPLK,we observed phosphorylation of all probes except for PL11 and PL12
